According to PMC4428629, “The Structure of an NDR/LATS Kinase–Mob Complex Reveals a Novel Kinase–Coactivator System and Substrate Docking Mechanism” (PLoS Biology, 2015):
Positions count from the first letter of the chain named. Read-outs that look alike come from different tables or passages of the source. Non-standard residues stand in square brackets, D forms with d. Residues, ends and D or L forms follow the SMILES beside them. pT = C[C@@H](OP(=O)(O)O)[C@H](N)C(=O)O

Tests used:
[1] = biological target: T1, Cbk1^251-756(F699A)-Mob2 (Saccharomyces cerevisiae, UniProt P43563+P53894, F699A); experiment: biochemical; type: binding
T1 construct: His6-Cbk1^251–756 was co-expressed with GST-Mob2 (full length or 45–287); His6 (N); made in house
T1 sequence (P53894 251-756 F699A, one chain of several): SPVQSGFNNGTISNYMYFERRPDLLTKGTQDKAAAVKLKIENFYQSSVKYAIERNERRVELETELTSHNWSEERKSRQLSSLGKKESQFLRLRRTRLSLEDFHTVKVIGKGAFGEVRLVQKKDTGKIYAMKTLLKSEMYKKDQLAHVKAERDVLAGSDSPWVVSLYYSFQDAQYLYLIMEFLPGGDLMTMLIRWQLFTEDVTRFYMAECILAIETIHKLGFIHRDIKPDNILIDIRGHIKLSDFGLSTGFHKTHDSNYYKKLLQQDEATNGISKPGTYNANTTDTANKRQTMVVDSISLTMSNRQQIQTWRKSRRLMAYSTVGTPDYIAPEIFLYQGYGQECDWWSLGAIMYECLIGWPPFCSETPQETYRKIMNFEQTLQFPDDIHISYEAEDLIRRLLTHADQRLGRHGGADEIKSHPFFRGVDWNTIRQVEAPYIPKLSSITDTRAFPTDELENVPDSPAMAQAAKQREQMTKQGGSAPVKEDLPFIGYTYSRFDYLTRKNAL
Protocol: (§1) His6-Cbk1^251–756 was co-expressed with GST-Mob2 (full length or 45–287). Cbk1 kinase domain alone (352–756 or 352–692) was expressed as GST-Cbk1-His6. All constructs were bacterially expressed and purified on a Ni-NTA resin (Qiagen) followed by glutathione Sepharose beads (GE Biosciences). For crystallization, tags were cleaved with TEV protease followed by cation exchange chromatography on a Resource S column. All Cbk1 preparations were subsequently dialyzed into Cbk1 buffer (20 mM Tris-HCl, 150 mM NaCl, 2 mM DTT [pH 8.0]).
(§2) For FP-based binding affinity measurements, different docking peptides (pepAce2: GSGSIIVTTNSANGGYQFP; pepSSD1: TTEQSDFKFP; pepHM: IGYTYSRFDY; pepHM-P: IGYpTYSRFDY) were N-terminally (pepAce2 and pepSSD1) or C-terminally (pepHM and pepHM-P) labeled with carboxyfluorescein (CF) fluorescent dyes.
(§3) Change in the FP signal in direct binding affinity measurements was monitored as a function of increasing concentration of protein with a Synergy H4 (BioTek Instruments) plate reader in 384-well plates. The labeled peptides were at 20 nM in 20 mM Tris (pH 8.0), 100 mM NaCl, 0.05% Brij35P, 2 mM DTT. […] Subsequently, increasing amounts of unlabeled peptide were added, and the FP signal was measured as described earlier for direct titration experiments. The Kd for each unlabeled peptide interaction was determined by fitting the data to a competition binding equation. […]

[2] = biological target: T2, Cbk1^251-756-Mob2 (Saccharomyces cerevisiae, UniProt P43563+P53894); experiment: FP direct titration, Cbk1^251-756-Mob2 (WT); type: binding
T2 construct: His6-Cbk1^251–756 was co-expressed with GST-Mob2 (full length or 45–287); His6 (N); made in house
T2 sequence (P53894 251-756): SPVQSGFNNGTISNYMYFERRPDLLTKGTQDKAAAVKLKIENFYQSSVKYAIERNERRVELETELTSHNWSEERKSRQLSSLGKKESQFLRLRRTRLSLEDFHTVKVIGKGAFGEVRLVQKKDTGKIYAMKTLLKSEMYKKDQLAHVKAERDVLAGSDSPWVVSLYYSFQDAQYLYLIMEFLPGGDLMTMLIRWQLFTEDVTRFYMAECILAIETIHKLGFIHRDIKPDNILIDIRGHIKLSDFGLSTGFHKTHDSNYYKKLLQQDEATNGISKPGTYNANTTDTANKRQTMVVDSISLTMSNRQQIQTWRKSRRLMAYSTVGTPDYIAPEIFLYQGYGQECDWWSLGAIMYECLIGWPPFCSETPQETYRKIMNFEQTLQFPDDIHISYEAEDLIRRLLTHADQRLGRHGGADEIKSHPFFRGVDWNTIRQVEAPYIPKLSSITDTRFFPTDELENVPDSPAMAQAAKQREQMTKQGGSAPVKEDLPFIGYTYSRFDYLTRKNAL
T2 sequence (P43563 1-287 partner): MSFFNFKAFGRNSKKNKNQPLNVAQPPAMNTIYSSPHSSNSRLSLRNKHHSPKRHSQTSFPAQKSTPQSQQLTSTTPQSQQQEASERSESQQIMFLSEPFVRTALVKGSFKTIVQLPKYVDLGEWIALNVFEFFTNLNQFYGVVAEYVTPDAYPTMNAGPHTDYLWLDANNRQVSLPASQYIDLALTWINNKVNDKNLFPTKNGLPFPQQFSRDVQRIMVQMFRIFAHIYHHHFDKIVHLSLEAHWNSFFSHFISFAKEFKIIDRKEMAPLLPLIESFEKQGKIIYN
Protocol: as §1, §2
Change in the FP signal in direct binding affinity measurements was monitored as a function of increasing concentration of protein with a Synergy H4 (BioTek Instruments) plate reader in 384-well plates. The labeled peptides were at 20 nM in 20 mM Tris (pH 8.0), 100 mM NaCl, 0.05% Brij35P, 2 mM DTT. The resulting binding isotherms were fit to a quadratic binding equation. The affinity of the unlabeled peptides was measured in steady-state competition experiments: 20 nM labeled reporter was mixed with protein samples in a concentration to achieve ~60%–80% complex formation. Subsequently, increasing amounts of unlabeled peptide were added, and the FP signal was measured as described earlier for direct titration experiments. The Kd for each unlabeled peptide interaction was determined by fitting the data to a competition binding equation. Titration experiments were carried out in triplicate, and the average FP signal was used for fitting the data with OriginPro 7.

[3] = biological target: T3, Cbk1^251-756(F447A)-Mob2 (Saccharomyces cerevisiae, UniProt P43563+P53894, F447A); experiment: biochemical; type: binding
T3 construct: His6-Cbk1^251–756 was co-expressed with GST-Mob2 (full length or 45–287); His6 (N); made in house
T3 sequence (P53894 251-756 F447A, one chain of several): as the sequence (P53894 251-756 F699A, one chain of several) above, with F197A, A449F counted along it
Protocol: as §1, §2, §3

[4] = biological target: T4, Cbk1^Δ730–756–Mob2 (Saccharomyces cerevisiae, UniProt P43563+P53894); experiment: biochemical; type: binding
T4 construct: His6-Cbk1^251–756 was co-expressed with GST-Mob2 (full length or 45–287); His6 (N); made in house
From the text: ND, not determined. […] (PDF) Click here for additional data file.

[5] = biological target: T5, Cbk1(D475A/T743E), residues 251-756 (S. cerevisiae, UniProt P53894 251-756, D475A | T743E); experiment: crystal structure; Cbk1(D475A) or Cbk1(D475A/T743E) with Mob2, tags cleaved, 4–6 mg/ml, 2 mM AMPPNP, 2 mM MgCl2, 2 mM TCEP; microbatch under oil at 23°C; three crystal forms; settings: both partners purified
T5 construct: two crystal forms (A, 4.5 Å; B, 3.6 Å); also called Cbk1(HM-E); Cbk1(T743E); source: bacterially expressed with Mob2, purified (Ni-NTA, glutathione Sepharose, TEV cleavage, Resource S); not shown: His6, N-terminal, cleaved
T5 sequence (looked up): T2 sequence (P53894 251-756) with D225A, T493E

[6] = biological target: T6, Cbk1(D475A), residues 251-756, intact hydrophobic motif (S. cerevisiae, UniProt P53894 251-756, D475A); experiment: as above; settings: both partners purified
T6 construct: crystallised with AMPPNP; also called Cbk1(HM-T); source: bacterially expressed with Mob2, purified (Ni-NTA, glutathione Sepharose, TEV cleavage, Resource S); not shown: His6, N-terminal, cleaved
T6 sequence (looked up): T2 sequence (P53894 251-756) with D225A

[7] = tested on: Cbk1; experiment: In vitro kinase assay resolved by SDS-PAGE, Ace2/Ssd1 fragments; type: biochemical, Saccharomyces cerevisiae; settings: Cbk1^352–756 kinase domain (S5D)
Protocol: Kinase assays resolved by SDS-PAGE were conducted with GST-Ace2 or GST-Ssd1 fusions. Reactions contained 1–5 μM substrate, 100–250 nM Cbk1, 5 mM MnCl2, 2 mM DTT, 20 μM ATP, 10 μCi γ-^32P-ATP in Cbk1 buffer. Samples were removed at indicated time points and quenched with SDS-PAGE buffer, followed by SDS-PAGE separation. ^32P was visualized using a Storm phosphorimager (GE Biosciences) and quantified using ImageQuant software.

[8] = biological target: T7, Cbk1^352–692 kinase domain (S. cerevisiae, UniProt P53894 352-692); experiment: pull-down; MBP fusions on amylose beads incubated with 1 μM purified Cbk1 on ice for 15 min, washed 3× with PBS; GelCode Blue or immunoblot (His or pS570 antibodies); settings: both partners purified
T7 construct: also called catalytic domain alone; source: bacterially expressed, purified (Ni-NTA, glutathione Sepharose); not shown: His6, C-terminal, kept
T7 sequence (looked up): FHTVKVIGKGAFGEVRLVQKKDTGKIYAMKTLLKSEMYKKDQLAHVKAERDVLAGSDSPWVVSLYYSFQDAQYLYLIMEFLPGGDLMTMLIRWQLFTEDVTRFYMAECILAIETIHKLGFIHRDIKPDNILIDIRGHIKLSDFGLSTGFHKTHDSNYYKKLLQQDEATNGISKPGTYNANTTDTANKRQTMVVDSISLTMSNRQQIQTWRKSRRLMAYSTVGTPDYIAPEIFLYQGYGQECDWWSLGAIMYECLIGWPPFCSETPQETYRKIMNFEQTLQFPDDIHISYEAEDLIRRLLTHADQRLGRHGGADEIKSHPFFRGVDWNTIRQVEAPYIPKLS

[9] = biological target: T8, Cbk1^352–756 kinase domain (S. cerevisiae, UniProt P53894 352-756); experiment: pull-down; pull-down of Cbk1^352–756 by bead-bound Ace2 or Ssd1 docking motifs in competition with unbound Ace2^270–290; settings: both partners purified
T8 construct: source: bacterially expressed, purified (Ni-NTA, glutathione Sepharose); not shown: His6, C-terminal, kept
T8 sequence (looked up): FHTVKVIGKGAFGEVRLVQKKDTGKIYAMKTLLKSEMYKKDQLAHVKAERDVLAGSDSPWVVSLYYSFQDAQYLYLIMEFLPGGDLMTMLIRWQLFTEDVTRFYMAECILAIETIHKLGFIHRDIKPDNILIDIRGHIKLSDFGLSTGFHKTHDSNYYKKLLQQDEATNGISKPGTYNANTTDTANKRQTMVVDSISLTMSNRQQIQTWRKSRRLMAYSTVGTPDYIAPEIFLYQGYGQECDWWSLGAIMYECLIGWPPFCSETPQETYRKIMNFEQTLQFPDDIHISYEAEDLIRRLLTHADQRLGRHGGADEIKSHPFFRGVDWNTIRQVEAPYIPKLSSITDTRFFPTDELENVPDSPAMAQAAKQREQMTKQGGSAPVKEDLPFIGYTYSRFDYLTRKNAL

CC[C@H](C)[C@H](NC(=O)[C@H](CO)NC(=O)CNC(=O)[C@H](CO)NC(=O)CN)C(=O)N[C@H](C(=O)N[C@H](C(=O)N[C@H](C(=O)N[C@H](C(=O)N[C@@H](CC(N)=O)C(=O)N[C@@H](CO)C(=O)N[C@@H](C)C(=O)N[C@@H](CC(N)=O)C(=O)NCC(=O)NCC(=O)N[C@@H](Cc1ccc(O)cc1)C(=O)N[C@@H](CCC(N)=O)C(=O)N[C@@H](Cc1ccccc1)C(=O)N1CCC[C@H]1C(=O)O)[C@@H](C)O)[C@@H](C)O)C(C)C)[C@@H](C)CC [pepAce2] (H-GSGSIIVTTNSANGGYQFP-OH)
Kd [1]: 5 µM
Kd ([2]; CF-labeled peptide 20 nM, Tris pH 8.0, triplicate, read-out: peptide binding affinity (table in Fig 5C)): 5 µM
Kd ([2]; labeled synthetic peptides, Cbk1–Mob2 (S5H Fig), read-out: Kd): ~6 µM

CC[C@H](C)[C@H](N)C(=O)NCC(=O)N[C@@H](Cc1ccc(O)cc1)C(=O)N[C@H](C(=O)N[C@@H](Cc1ccc(O)cc1)C(=O)N[C@@H](CO)C(=O)N[C@@H](CCCNC(=N)N)C(=O)N[C@@H](Cc1ccccc1)C(=O)N[C@@H](CC(=O)O)C(=O)N[C@@H](Cc1ccc(O)cc1)C(=O)O)[C@@H](C)OP(=O)(O)O [pepHM-P] (H-IGY[pT]YSRFDY-OH)
Kd [3]: 33 µM
Kd [4]: ~6 µM

B1: Mob2, residues 45-287 (natural protein, S. cerevisiae, UniProt P43563 45-287, looked up)
chain: LRNKHHSPKRHSQTSFPAQKSTPQSQQLTSTTPQSQQQEASERSESQQIMFLSEPFVRTALVKGSFKTIVQLPKYVDLGEWIALNVFEFFTNLNQFYGVVAEYVTPDAYPTMNAGPHTDYLWLDANNRQVSLPASQYIDLALTWINNKVNDKNLFPTKNGLPFPQQFSRDVQRIMVQMFRIFAHIYHHHFDKIVHLSLEAHWNSFFSHFISFAKEFKIIDRKEMAPLLPLIESFEKQGKIIYN
notes: the crystallised construct begins at 45 (N-terminal Mob2 region 45-110 not seen in the density); source: bacterially expressed with Cbk1, purified (Ni-NTA, glutathione Sepharose, TEV cleavage, Resource S); not shown: GST, N-terminal, cleaved
binding result [5]: binds
binding result [6]: binds

B2: Ace2^102–306: Ace2 fragment, kinase substrate containing docking motif (protein, UniProt P21192 102-306, looked up, fragment)
chain: ENNKVSHYSKKSMSSHKRGLSGTAIFGFLGHNKTLSISSLQQSILNMSKDPQPMELINELGNHNTVKNNNDDFDHIRENDGENSYLSQVLLKQQEELRIALEKQKEVNEKLEKQLRDNQIQQEKLRKVLEEQEEVAQKLVSGATNSNSKPGSPVILKTPAMQNGRMKDNAIIVTTNSANGGYQFPPPTLISPRMSNTSINGSPSR
enhancement of phosphorylation by docking motif [7]: 100 fold

B3: Ace2^270–290 docking motif, MBP fusion (domain or fragment, S. cerevisiae, UniProt P21192 270-290, looked up)
chain: NAIIVTTNSANGGYQFPPPTL
notes: Ace2 of budding yeast, residues 270-290; also called WT Ace2 (two glycine residues)
binding result [8]: binds
binding result [9]: binds
